Calls of active or inactive are those of the source.
Columns and labels:
[1] = viability of PTEN-deleted HCT116 cells – cell-based, HCT116 PTEN knockout, dose response (AID 1047); assay type: functional;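 note: HCT116 colon tumor cells with PTEN knocked out; cells exposed to compound for 60 hours before readout; potency for loss of cell viability measured by luminescence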
[2] = viability of HCT116 lacking mutant beta-catenin – cell-based, human colon tumor, dose response (AID 1045); assay type: functional;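 note: HCT116 colon tumor cells with beta catenin knocked out; cells exposed to compound for 60 hours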
[3] = tested on: H9c2; test: cells; assay type: functional, cell-based; conditions: Rattus norvegicus, H9c2, Myocardium;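 note: confirmatory concentration-response retest of ultra-high-throughput screening hits for modulation of myocardial damage; cell death induced by hydrogen peroxide oxidative stress; compound pretreatment for 60 min then peroxide exposure for 2 h; potency is for protecting the cells against peroxide damage rather than for killing them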
[4] = cells; assay type: functional, cell-based
[5] = cells; assay type: functional, cell-based; remark: listed apart in the source
[6] = luciferase reporter signal suppression in cells – H4 neuroglioma cells, luminescence, dose response (AID 1990); assay type: functional, cell-based
[7] = Luminescence Cell-Based Dose Response HTS to Identify Inhibitors of 5'UTR Stem-Loop Driven Prion Protein mRNA Translation in H4 Neuroglioblastoma Cells. [Related pubchem assays: 1827 (Project Summary), 1813 (Primary HTS)]; assay type: functional
[8] = alpha-synuclein stem-loop luciferase translation blockers – H4 neuroglioma cells, luminescence, confirmation (AID 1988); assay type: functional, cell-based
[9] = molecular target: T1, Carboxy-terminal domain RNA polymerase II polypeptide A small phosphatase 1 (Homo sapiens, UniProt Q9GZU7); test: CTDSP1 inhibitors, concentration-response, biochemical, absorbance readout, ultra-high-throughput screen actives (AID 540297); assay type: functional
T1 sequence (Q9GZU7 whole entry): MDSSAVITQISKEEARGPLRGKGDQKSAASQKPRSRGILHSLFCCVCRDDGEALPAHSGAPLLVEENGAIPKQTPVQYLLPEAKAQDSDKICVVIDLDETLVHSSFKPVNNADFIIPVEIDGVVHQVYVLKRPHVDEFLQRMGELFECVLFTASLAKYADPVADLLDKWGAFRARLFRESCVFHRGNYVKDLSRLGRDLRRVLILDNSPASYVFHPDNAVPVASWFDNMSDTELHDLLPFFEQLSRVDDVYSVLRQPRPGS

[10] = molecular target: Induced myeloid leukemia cell differentiation protein Mcl-1 (Homo sapiens, UniProt Q07820); assay type: functional
Chain of Induced myeloid leukemia cell differentiation protein Mcl-1 (Q07820 whole entry): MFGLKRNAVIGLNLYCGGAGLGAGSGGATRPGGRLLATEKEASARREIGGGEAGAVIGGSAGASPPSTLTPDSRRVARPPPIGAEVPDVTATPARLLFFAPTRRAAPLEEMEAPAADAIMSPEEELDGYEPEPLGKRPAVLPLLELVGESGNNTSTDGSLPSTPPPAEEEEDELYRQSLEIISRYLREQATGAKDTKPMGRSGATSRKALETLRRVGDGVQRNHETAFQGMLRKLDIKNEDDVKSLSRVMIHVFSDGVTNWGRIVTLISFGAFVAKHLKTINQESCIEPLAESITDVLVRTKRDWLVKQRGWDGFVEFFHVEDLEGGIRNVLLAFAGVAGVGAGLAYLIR

[11] = molecular target: T2, Cytochrome P450 1A2 (Homo sapiens, UniProt P05177);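 note: PubChem cytochrome P450 panel assay, CYP1A2 panel member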
T2 sequence (P05177 whole entry): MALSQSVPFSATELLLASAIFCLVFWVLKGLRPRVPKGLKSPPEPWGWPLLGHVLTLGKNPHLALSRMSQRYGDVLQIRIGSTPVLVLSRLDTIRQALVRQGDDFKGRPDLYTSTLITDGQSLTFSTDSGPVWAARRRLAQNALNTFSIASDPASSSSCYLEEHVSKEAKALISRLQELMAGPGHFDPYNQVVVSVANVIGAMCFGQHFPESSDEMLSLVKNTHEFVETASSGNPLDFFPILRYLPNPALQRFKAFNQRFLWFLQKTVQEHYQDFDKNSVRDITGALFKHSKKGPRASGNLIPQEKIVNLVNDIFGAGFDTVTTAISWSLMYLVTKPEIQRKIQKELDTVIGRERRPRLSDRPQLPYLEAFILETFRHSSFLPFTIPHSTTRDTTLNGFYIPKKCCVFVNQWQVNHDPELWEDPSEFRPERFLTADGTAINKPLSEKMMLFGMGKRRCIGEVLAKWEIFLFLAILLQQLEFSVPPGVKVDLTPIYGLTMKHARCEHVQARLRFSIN

[12] = cells; assay type: functional
[13] = molecular target: Cytochrome P450 2C9 (Homo sapiens, UniProt P11712)
Chain of Cytochrome P450 2C9 (P11712 whole entry): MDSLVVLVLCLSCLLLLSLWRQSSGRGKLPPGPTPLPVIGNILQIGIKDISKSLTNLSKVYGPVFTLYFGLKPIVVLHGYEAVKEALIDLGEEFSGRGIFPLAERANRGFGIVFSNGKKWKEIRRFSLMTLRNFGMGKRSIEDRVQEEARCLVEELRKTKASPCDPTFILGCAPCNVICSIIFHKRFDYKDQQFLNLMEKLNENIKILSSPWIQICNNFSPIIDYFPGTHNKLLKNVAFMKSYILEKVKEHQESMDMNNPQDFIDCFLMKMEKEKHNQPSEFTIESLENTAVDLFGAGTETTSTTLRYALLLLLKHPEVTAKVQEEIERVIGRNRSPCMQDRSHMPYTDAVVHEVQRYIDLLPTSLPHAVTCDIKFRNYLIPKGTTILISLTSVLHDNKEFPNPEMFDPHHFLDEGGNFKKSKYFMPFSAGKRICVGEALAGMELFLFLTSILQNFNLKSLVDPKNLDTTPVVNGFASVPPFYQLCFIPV

[14] = molecular target: Luciferin 4-monooxygenase (Photinus pyralis, UniProt P08659); test: inhibition of purified Photinus pyralis luciferase – biochemical, luminescence, dose response (AID 1891)
Chain of Luciferin 4-monooxygenase (P08659 whole entry): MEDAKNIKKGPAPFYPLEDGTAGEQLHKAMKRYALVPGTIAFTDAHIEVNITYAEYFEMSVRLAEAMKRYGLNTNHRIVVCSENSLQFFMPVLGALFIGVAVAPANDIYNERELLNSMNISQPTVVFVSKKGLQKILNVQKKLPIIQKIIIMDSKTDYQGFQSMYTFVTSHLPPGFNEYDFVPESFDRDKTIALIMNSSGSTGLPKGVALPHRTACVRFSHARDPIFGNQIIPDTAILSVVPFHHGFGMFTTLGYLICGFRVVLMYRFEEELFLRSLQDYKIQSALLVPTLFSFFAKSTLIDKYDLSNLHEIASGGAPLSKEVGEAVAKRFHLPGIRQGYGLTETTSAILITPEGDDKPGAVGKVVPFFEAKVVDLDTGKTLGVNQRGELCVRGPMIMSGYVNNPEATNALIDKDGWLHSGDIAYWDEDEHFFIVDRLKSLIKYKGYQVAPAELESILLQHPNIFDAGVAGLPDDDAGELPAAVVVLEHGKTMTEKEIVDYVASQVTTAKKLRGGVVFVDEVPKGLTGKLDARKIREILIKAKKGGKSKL

[15] = Luminescence Cell-Based Dose Confirmation HTS to Identify Inhibitors of Platelet Dense Granule Release. [Related pubchem assays: 1663 (Primary HTS), 1678 (Summary of Project)]; assay type: functional
[16] = Luminescence Cell-Based Dose Retest to Confirm Inhibitors of Cancer Stem Cells. [Related pubchem assays (depositor defined):AID2717, AID2721]; assay type: functional; conditions: Homo sapiens
[17] = microbe, parasite or virus in culture; assay type: functional; conditions: Mycobacterium tuberculosis
[18] = NIH-3T3 fibroblast cytotoxicity, dose response, cytotoxicity control, cell-based, fluorescence, Alamar Blue, secondary assay (AID 2327); assay type: functional;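 note: NIH-3T3 mouse fibroblasts cultured with fluconazole at 8 µg/mL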
[19] = fluconazole-exposed Candida albicans growth modulators – fluorescence, retest, confirmation (AID 2467); assay type: functional, cell-based
[20] = tested on: P388/ADR; test: cells; assay type: functional; conditions: Mus musculus
[21] = tested on: SN12K1; test: cells; assay type: functional; conditions: Homo sapiens
[22] = Trypanosoma cruzi growth suppression in host cells – NIH3T3 host cells, beta-gal luminescence, confirmation (AID 2044); assay type: functional, cell-based;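 note: intracellular parasites grown in NIH/3T3 mouse fibroblasts as host cells; luminescent beta-galactosidase reporter signal from transgenic T. cruzi replicating inside host cells; inhibitors lower the luminescence signal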
[23] = NIH3T3 cell viability loss – ATP luminescence, mouse fibroblasts, counter-screen, dose response (AID 2010); assay type: functional, cell-based;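 note: cells exposed to compound for about 90 hours before reading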
[24] = molecular target: Cytochrome P450 2C19 (Homo sapiens, UniProt P33261); test: Cytochrome panel assay with activity outcomes. Panel member name: p450-cyp2c19 Compounds with AC50 equal or less than 10 uM are considered active; assay type: functional; conditions: read-out: AC50
Chain of Cytochrome P450 2C19 (P33261 whole entry): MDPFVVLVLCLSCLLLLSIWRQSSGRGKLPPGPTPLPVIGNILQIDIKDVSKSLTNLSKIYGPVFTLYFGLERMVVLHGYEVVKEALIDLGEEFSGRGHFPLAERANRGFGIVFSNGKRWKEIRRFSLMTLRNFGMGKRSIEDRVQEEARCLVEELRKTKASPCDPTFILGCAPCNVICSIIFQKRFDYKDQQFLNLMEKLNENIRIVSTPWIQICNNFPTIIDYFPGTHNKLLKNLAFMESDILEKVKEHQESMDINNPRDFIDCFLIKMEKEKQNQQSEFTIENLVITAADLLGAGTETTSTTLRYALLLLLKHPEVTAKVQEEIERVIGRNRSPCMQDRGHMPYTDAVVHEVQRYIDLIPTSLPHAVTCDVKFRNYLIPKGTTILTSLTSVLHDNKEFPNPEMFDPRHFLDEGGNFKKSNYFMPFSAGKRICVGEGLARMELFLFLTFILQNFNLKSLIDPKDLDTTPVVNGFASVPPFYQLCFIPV

[25] = molecular target: Cytochrome P450 3A4 (Homo sapiens, UniProt P08684);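 note: CYP3A4 tested as one member of a cytochrome P450 panel screen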
Chain of Cytochrome P450 3A4 (P08684 whole entry): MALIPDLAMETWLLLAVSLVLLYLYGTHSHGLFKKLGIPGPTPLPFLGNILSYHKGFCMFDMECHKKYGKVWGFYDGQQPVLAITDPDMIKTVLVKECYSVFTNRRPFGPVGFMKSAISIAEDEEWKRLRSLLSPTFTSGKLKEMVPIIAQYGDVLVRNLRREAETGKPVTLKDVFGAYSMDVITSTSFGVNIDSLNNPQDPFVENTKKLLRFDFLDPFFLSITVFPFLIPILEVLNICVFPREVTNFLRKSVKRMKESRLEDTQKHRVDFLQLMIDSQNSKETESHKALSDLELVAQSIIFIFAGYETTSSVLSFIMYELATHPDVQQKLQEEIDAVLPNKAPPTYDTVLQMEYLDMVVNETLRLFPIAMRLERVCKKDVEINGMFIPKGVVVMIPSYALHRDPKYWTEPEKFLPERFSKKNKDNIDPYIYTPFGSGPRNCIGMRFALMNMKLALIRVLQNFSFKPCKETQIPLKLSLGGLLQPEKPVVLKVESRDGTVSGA

[26] = A549 cell cytotoxicity, dose response, cytotoxicity control, plate reader, cherry-pick, antagonist series (AID 743412); assay type: functional, cell-based
[27] = blockers of bursicon-stimulated LGR2 cAMP reporter – cell-based, HEK293, CRE-luciferase reporter, cherry pick, set 2, dose response (AID 743343); assay type: functional;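 note: transfected cells were stimulated with diluted bursicon conditioned medium after compound addition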
[28] = blockade of melanocortin 4 receptor signaling – cell-based, plate reader, cherry pick, counter-screen for LGR2 antagonist project, dose response (AID 743444); assay type: functional;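 note: transfected HEK 293 cells stimulated with alpha-MSH peptide; potency of inhibitors of the alpha-MSH evoked signal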
[29] = HIV-1 AD8 envelope cell-cell fusion blockers – cherry-pick, dose response (AID 652062); assay type: functional, cell-based;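 note: luciferase signal from cell-cell fusion driven by HIV-1 clade B AD8 Env; potency is for inhibitors of fusion seen as a drop in luminescence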

With `CNC(=O)c1ccc(-c2sc3nc(N4CCOCC4)c4c(c3c2N)CCCC4)o1` the EC50 [1] was 23.5 µM (active), the EC50 [2] was 24.6 µM (active) and the IC50 [3] was 14.2 µM (active).

For `CCN(C(=O)CSc1nc[nH]n1)C1CCCCC1`, the EC50 [4] was > 350 µM (not active) and the EC50 [5] was > 350 µM (not active).

With `C=CCOc1nc(-c2ccccc2Cl)nc2ccccc12` the EC50 [6] was 69.1 µM (active), the EC50 [4] was > 350 µM (not active) and the EC50 [7] was > 120 µM (not active). The EC50 [8] was 17.4 µM (active) and the EC50 [5] was > 350 µM (not active).

In the case of `Cc1cccc(OCC(=O)NCC(=O)N/N=C/c2cccnc2)c1`, the EC50 [4] was > 350 µM (not active) and the EC50 [5] was > 350 µM (not active).

With `N#C/C(=C\c1ccc[nH]1)C(=O)Nc1ccccc1[N+](=O)[O-]` the IC50 [9] was 7.3 µM (active).

In the case of `COc1cnn(-c2ccc(Br)cc2)c(=O)c1SCc1ccccc1`, the IC50 [10] was 3.25 µM (not active).

With `CC(C)Cc1nc(N2CCN(C(=O)c3ccccc3)CC2)c(C#N)c2c1CCC2` the AC50 [11] was 25.1 µM (inconclusive).

For `Cn1c(=O)c(Oc2ccc(Cl)cc2)c(O)c2ccccc21`, the IC50 [12] was 3.7 µM (active).

In the case of `CCOC(=O)c1cc(C(O)(C(=O)OC)C(F)(F)F)c(/N=C/N(C)C)o1` (stereo not given), the IC50 [10] was < 0.4 µM (not active).

In the case of `CC1=C(C(N)=O)C(c2ccccn2)n2nc(SCc3ccccc3Cl)nc2N1` (stereo not given), the AC50 [11] was 15.8 µM (inconclusive) and the AC50 [13] was 20 µM (inconclusive).

In the case of `Cc1cccc(OCc2nnc(SCC(=O)Nc3ncc(C)s3)o2)c1`, the EC50 [14] was > 112 µM (not active) and the EC50 [15] was > 112 µM (not active).

In the case of `CCOC(=O)COc1ccc(C(=O)NC2CCCCC2)cc1`, the IC50 [12] was 7.69 µM (active).

With `COc1cc(NS(=O)(=O)c2ccc(N/C=C(\C#N)c3nc4cc(Cl)ccc4o3)cc2)nc(OC)n1` the EC50 [1] was 12.7 µM (active), the EC50 [2] was 14.7 µM (active) and the AC50 [16] was 2.08 µM (active).

With `CC1CCN(Cc2c(O)ccc3c(O)c(-c4nc5ccccc5s4)c(=N)oc23)CC1` the EC50 [1] was 16.6 µM (active) and the EC50 [2] was 16.8 µM (active).

With `Cn1cc(NC(=O)CCl)cn1` the CC50 [17] was > 40 µM (active).

In the case of `COc1ccc(NC(=O)c2cc(S(=O)(=O)N3CCOCC3)cn2C)c(OC)c1`, the EC50 [14] was > 112 µM (not active) and the EC50 [15] was > 112 µM (not active).

For `COc1ccc(/C=C(/NC(=O)c2ccccc2)c2nc3cc(Cl)ccc3[nH]2)cc1OC`, the EC50 [18] was > 150 µM (inconclusive) and the EC50 [19] was 4.44 µM (active).

In the case of `CCOc1ccc(C(C)=O)cc1N1C(=O)C2C3C=CC(C3)C2C1=O` (stereo not given), the IC50 [9] was 15.8 µM (active).

For `O=C(C1CCC1)N1CCN(S(=O)(=O)c2ccc(Br)cc2Cl)CC1`, the CC50 [17] was > 40 µM (active).

With `CCOc1ccc2nc(N=C(S)N(C)C)sc2c1` the EC50 [18] was > 150 µM (inactive) and the EC50 [19] was 2.33 µM (active).

For `O=C1NC(=O)N(CCC2=CCCCC2)C(=O)/C1=C(O)/C=C/c1ccc2c(c1)OCO2`, the EC50 [1] was 17.1 µM (active), the EC50 [2] was 15 µM (active) and the AC50 [16] was 1.37 µM (active).

In the case of `CCCCn1c(CCC(=O)O)ccc1-c1cccs1`, the EC50 [14] was > 112 µM (not active) and the EC50 [15] was > 112 µM (not active).

For `Cc1ccc(CN2CC(C(=O)OCc3ccccc3Cl)CC2=O)cc1` (stereo not given), the IC50 [12] was 7.41 µM (active).

In the case of `CN(C)c1cccc(OC(=O)NCCCl)c1`, the GI50 [20] was 31 µM (inactive) and the GI50 [21] was > 100 µM (inactive).

For `O=C(CSc1nnc(C2CC2)n1-c1ccccc1)Nc1ccc(N2CCOCC2)cc1`, the EC50 [14] was > 112 µM (not active) and the EC50 [15] was > 112 µM (not active).

In the case of `CCCCn1nc(C(=O)N[C@@H](CCSC)c2nc3ccccc3[nH]2)c2ccccc2c1=O`, the CC50 [17] was > 40 µM (active).

For `CCc1c(C)nc2ccc(OC)cc2c1S`, the IC50 [10] was 0.628 µM (active).

For `O=C1CC(/C=C/c2ccc(Cl)cc2)=Nc2ccccc2N1`, the CC50 [17] was 23.8 µM (active).

With `O=C(NC1CCCCC1)C(c1cccs1)N(CCCN1CCOCC1)C(=O)c1ccc(-c2ccccc2)[nH]1` (stereo not given) the CC50 [17] was > 40 µM (active).

In the case of `CC(=O)N1CCC2(CC1)CC(=O)c1cc(OCC(=O)N3CCN(C)CC3)ccc1O2`, the AC50 [11] was 39.8 µM (inconclusive).

In the case of `CC(C)OC(=O)CCCCCN1C(=O)CSC1=S`, the EC50 [22] was 4.77 µM (active), the CC50 [17] was 31.3 µM (active) and the EC50 [23] was 8.46 µM (active). The IC50 [12] was 6.29 µM (active).

For `COc1cc2c(cc1OC)C(c1ccc(N)cc1)=NNC(=O)C2`, the AC50 [24] was 15.8 µM (inconclusive), the AC50 [11] was 39.8 µM (inconclusive) and the AC50 [13] was 39.8 µM (inconclusive).

In the case of `Cc1cc(Cl)nc(NC(=O)CSc2ccc(Cl)cc2)n1`, the AC50 [11] was 5.01 µM (inconclusive).

In the case of `COc1ccc([N+](=O)[O-])cc1C1NN=C(c2cccc3ccccc23)S1` (stereo not given), the EC50 [14] was > 112 µM (not active) and the EC50 [15] was > 112 µM (not active).

For `COc1ccc2c(c1)c(=O)oc1cc(OCC(=O)NC3CC3)ccc12`, the EC50 [1] was 14.1 µM (active) and the EC50 [2] was 37.7 µM (active).

For `O=C(COC(=O)c1ccc(S(=O)(=O)N2CCCCC2)cc1)NCc1ccco1`, the IC50 [9] was 10.5 µM (active).

With `O=C(c1ccc2c(c1)OCO2)N1CCC2(CC1)Oc1ccc(F)cc1C(=O)C21CC(c2cccnc2)=NO1` (stereo not given) the EC50 [18] was 49.2 µM (active) and the EC50 [19] was 0.566 µM (inconclusive).

For `COc1ccc(C(=O)N2CCC[C@@]3(CCN(C(=O)NC(C)C)C3)C2)cc1`, the AC50 [11] was 12.6 µM (inconclusive) and the AC50 [25] was 20 µM (inconclusive).

In the case of `CC(=O)NC1=C(NC2CCS(=O)(=O)C2)C(=O)c2ccccc2C1=O` (stereo not given), the IC50 [10] was 2.54 µM (active).

In the case of `COc1ccc(CNC(=O)/C=C\c2ccc3[nH]cc(CCN(C)C)c3c2)cc1`, the AC50 [11] was 39.8 µM (inconclusive).

For `CN(C)c1cccc(C(=O)Nc2nc3ccccc3[nH]2)c1`, the AC50 [26] was > 52 µM (inactive), the AC50 [27] was 6.18 µM (active) and the AC50 [28] was 5.96 µM (active).

With `COc1cccc(-c2nc(-c3ccc(C(=O)O)cc3)no2)c1` the EC50 [14] was 0.794 µM (active) and the EC50 [15] was 4.03 µM (active).

With `O=C(NCc1ccco1)C1Cc2ccccc2CN1S(=O)(=O)c1ccccc1F` (stereo not given) the IC50 [9] was 5.41 µM (active).

For `CCc1cnc(N2[C@H](C#N)[C@H](c3ccc(C#Cc4ccccc4F)cc3)[C@H]2CO)s1`, the AC50 [29] was 33.6 µM (active).

In the case of `COC(=O)C1CCN(C(=O)COC(=O)CNS(=O)(=O)c2ccc(SC)c([N+](=O)[O-])c2)CC1`, the IC50 [9] was 13.5 µM (active).

In the case of `Cn1cc(SCC(=O)Nc2nc3ccccc3s2)c2ccccc21`, the EC50 [14] was > 112 µM (not active) and the EC50 [15] was > 112 µM (not active).

— ChEMBL document CHEMBL1201862, “PubChem BioAssay data set” (2004)
